Experimental data taken from ChEMBL document CHEMBL3832047, “DailyMed|setid=077bf6ff-afb8-4cb7-9faa-fbb6fd9f037f | YAZ - drospirenone and ethinyl estradiol|Physicians Total Care, Inc”.

Experiments:
[1] = system: Homo sapiens; test: (§1) Evaluation pharmacokinetic parameters for Drosporine following multiple co-administration of Drosporine tablets and 0.02 mg ethinyl estradiol to 23 healthy females.; format: ADME, organism-based; parameters: dose 3 mg, route oral; details: in vivo, po, dosed compound id 30, dosed compound name DROSPIRENONE, gender female, regimen every 24h, study dosing duration 21 days, tissue Serum
[2] = as §1; format: ADME, organism-based; parameters: dose 3 mg, route oral; details: human, in vivo, dosed compound id 30, dosed compound name DROSPIRENONE, gender female, regimen every 24h, study dosing duration 21 days, tissue Serum

AUC(0-24) ([1]; sampling time1 1 day): 268 ng·h/mL
AUC(0-24) ([1]; sampling time1 21 day): 763 ng·h/mL
Cmax ([1]; sampling time1 21 day): 70.3 ng/mL
Cmax ([2]; po, sampling time1 1 day): 38.4 ng/mL
Tmax ([2]; dose 3 mg, route oral, sampling time1 1 day): 1 to 2 h
half-life ([2]; dose 3 mg, route oral, sampling time1 21 day): 30.8 h
Structure (SMILES): C[C@]12CCC(=O)C=C1[C@@H]1C[C@@H]1[C@H]1[C@@H]3[C@@H]4C[C@@H]4[C@@]4(CCC(=O)O4)[C@@]3(C)CC[C@@H]12 [DROSPIRENONE]
